Data as given in patent US6596762B2, “Antioxidant compositions and use for treatment of hepatic steatosis and steatohepatitis” (The Regents of The University of Colorado, priority 2001, dated 2003).

Experiments:
[1] = system: isolated rat liver mitochondria; assay: Protection of isolated liver mitochondria against toxic bile acids
Source text: (§1) Beta carotene and other carotenoids also function as antioxidants in tissues with low oxygen content (such as the liver) and the present inventor has shown beta carotene to have a protective role in hepatic mitochondria that prevents processes that generate oxygen free radicals (unpublished data). […] (Sokol et al., Hepatology 2001;34(2):277A, incorporated herein by reference in its entirety).

[2] = system: isolated human liver mitochondria; assay: as above
Source text: as §1

[3] = system: fat-laden hepatocytes from obese Zucker (fa/fa) rats; assay: Cell necrosis (%LDH release) of isolated hepatocytes exposed to GCDC; type: cell-based, rat; settings: fat-laden cells, 100 μM GCDC × 3 hours
Protocol: (§2) Briefly, 8-week-old obese Zucker (fa/fa) rats (Zucker rat model of hepatic steatosis) and lean (Fa/?) litter-mates were sacrificed. Liver blood tests and liver histology were obtained, and hepatocytes isolated by the recirculating collagenase perfusion technique. Initial trypan blue exclusion exceeded 94%. Cells were incubated in suspension with glycochenodeoxycholic acid (GCDC) (0,-1000 μM) in Krebs-Ringer-HEPES for 4 hours. Aliquots of cells were removed hourly for determination of: (1) hydroperoxide generation measured by fluorescence of dichlorofluororescin diacetate (DCF-DA) that was preloaded into hepatocytes; (2) %LDH release as a measure of cell necrosis; and (3) DAPI fluorescence microscopy of fixed cells to quantify apoptosis. Liver histology was quantitated using a grading system.

[4] = system: lean hepatocytes from lean (Fa/?) Zucker litter-mates; assay: as above; type: cell-based, rat; settings: lean cells, 100 μM GCDC × 3 hours
Protocol: as §2

[5] = system: fat-laden hepatocytes from obese Zucker (fa/fa) rats; assay: Hydroperoxide generation (DCF-DA fluorescence) in isolated hepatocytes exposed to GCDC; type: cell-based, rat; settings: fat-laden cells exposed to GCDC, compared with lean cells
Protocol: as §2

[6] = system: fat-laden hepatocytes from obese Zucker (fa/fa) rats; assay: Apoptosis by DAPI fluorescence microscopy of isolated hepatocytes exposed to GCDC; type: cell-based, rat; settings: fat-laden cells, 100 μM GCDC × 3 hours
Protocol: as §2

[7] = system: lean hepatocytes from lean (Fa/?) Zucker litter-mates; assay: as above; type: cell-based, rat; settings: lean cells, 100 μM GCDC × 3 hours
Protocol: as §2

[8] = system: fat-laden hepatocytes; assay: Protection of fat-laden liver cells exposed to bile acids; type: cell-based, rat; settings: fat-laden liver cells exposed to relatively low concentrations of bile acids
Source text: The antioxidants in this mixture were chosen for the following scientific reasons. […] Briefly, fat-laden hepatocytes were isolated from the Zucker rat model of hepatic steatosis and from lean littermate Zucker rats. […] Without being bound by theory, the present inventor believes that the fatty liver is more prone to hepatocyte necrosis and thus is at risk for severe injury from minor and major insults. […] Studies from the present inventor's laboratory have shown that the effect of vitamin E is probably mediated through reduction of free radical production from mitochondria (Yerushalmi et al., Hepatology 2001; 33:616-26, incorporated herein by reference in its entirety).

[9] = system: children with NASH; settings: oral vitamin E 400 to 1200 IU per day, during therapy; cited from earlier work

Q: Which “mitochondrial swelling and injury induced by toxic bile acids” value [1] does the source give for `CC1=C(/C=C/C(C)=C/C=C/C(C)=C/C=C/C=C(C)/C=C/C=C(C)/C=C/C2=C(C)CCCC2(C)C)C(C)(C)CCC1` [beta carotene] here?
A: Its value is “protects the mitochondria from swelling and injury”.

Q: And the “production of free radicals” value ([1]; toxic bile acids)?
A: Its value is “markedly diminishes the production of free radicals”.

Q: And the “mitochondrial swelling and injury induced by toxic bile acids” value [2]?
A: Its value is “protects the mitochondria from swelling and injury”.

Q: And the “production of free radicals” value ([2]; toxic bile acids)?
A: Its value is “markedly diminishes the production of free radicals”.

Q: For `CC(CCC(=O)NCC(=O)O)C1CCC2C3C(O)CC4CC(O)CCC4(C)C3CCC12C` (centres unmarked) [GCDC, glycochenodeoxycholic acid], which “necrosis (%LDH release)” value [3] is on record?
A: The value was 54%.

Q: What about the “necrosis (%LDH release)” value [4] of the same compound?
A: Its value is 24%.

Q: And the generation of hydroperoxides [5]?
A: Its generation of hydroperoxides is “trend was present towards increased generation of hydroperoxides”.

Q: And the apoptosis [6]?
A: The apoptosis was 8%.

Q: What about the apoptosis [7] of the same compound?
A: Its apoptosis is 31%.

Q: Which “oxidative stress and hepatocyte cell death” value [8] does the source give for `Cc1c(C)c2c(c(C)c1O)CC[C@@](C)(CCC[C@H](C)CCC[C@H](C)CCCC(C)C)O2` [alpha tocopherol] here?
A: The value was “will prevent oxidative stress and hepatocyte cell death”.

Q: And the “serum AST and ALT” value [9]?
A: Its value is “reduced”.
